Assay results taken from US20250152719A1, “FUSED IMIDE DERIVATIVE” (Chia Tai Tianqing Pharmaceutical Group Co., Ltd., priority 2021, published 2025).
pIC50: −log10 of the molar value.

Tests used:
[1] = system: OCI-LY10-BTK(C481S) cells; experiment: Inhibitory activity on OCI-LY10-BTK(C481S) cell proliferation (CCK-8); assay type: cell-based; conditions: 72 h incubation, IC50 per method, unit inferred
Procedure: OCI-LY10(C481S) cells in the logarithmic growth phase were collected and added to a centrifuge tube, adjusted to a cell density of 5×10^4 cells/mL, and seeded in a 96-well plate (100 μL/well). Meanwhile, compounds were added using a nanoliter pipettor such that the final concentrations of the compounds were 5000 nM-0.31 nM; the addition was performed in duplicate, and meanwhile, a control was set. After another 72 h of incubation in the cell incubator, the detection reagent CCK-8 (manufacturer: Dojindo Laboratories, Beijing; 10 μL/well) was added. After 3 h of incubation in the cell incubator, absorbance values were detected at 450 nm using a PerkinElmer Envision microplate reader, the four-parameter analysis was performed, the dose-response curves were fit, and IC50 was calculated.

[2] = biological target: BTK(C481S) kinase (Homo sapiens (Human), UniProt Q06187, C481S); experiment: Inhibitory activity on BTK(C481S) kinase; assay type: biochemical; conditions: ATP 10 μM
Chain of BTK(C481S) kinase (Q06187 whole entry C481S): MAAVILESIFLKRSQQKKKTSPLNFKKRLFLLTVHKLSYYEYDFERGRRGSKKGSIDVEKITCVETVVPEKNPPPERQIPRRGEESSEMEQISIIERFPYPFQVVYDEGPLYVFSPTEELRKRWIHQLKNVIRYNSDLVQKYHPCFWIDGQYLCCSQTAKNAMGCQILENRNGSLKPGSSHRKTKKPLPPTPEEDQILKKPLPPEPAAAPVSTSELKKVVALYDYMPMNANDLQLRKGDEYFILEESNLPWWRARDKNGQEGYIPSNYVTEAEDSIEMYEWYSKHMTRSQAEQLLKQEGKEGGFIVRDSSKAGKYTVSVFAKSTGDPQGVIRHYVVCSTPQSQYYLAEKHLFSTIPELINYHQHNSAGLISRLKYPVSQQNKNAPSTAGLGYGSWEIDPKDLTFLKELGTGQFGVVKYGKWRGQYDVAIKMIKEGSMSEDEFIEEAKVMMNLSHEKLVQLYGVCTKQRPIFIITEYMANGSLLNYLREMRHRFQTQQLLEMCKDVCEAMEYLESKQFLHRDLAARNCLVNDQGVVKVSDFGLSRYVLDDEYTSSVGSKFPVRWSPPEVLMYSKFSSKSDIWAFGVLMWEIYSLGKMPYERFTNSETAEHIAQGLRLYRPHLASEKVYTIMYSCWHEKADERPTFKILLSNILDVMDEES
Procedure: The Assay Buffer was prepared, and the composition of the Assay Buffer was 50 mM Hepes (Gibco, 15630), 10 mM MgCl2, 2 mM DTT, 1 mM EGTA, and 0.010% Tween 20. BTK(C481S) kinase (Carna Biosciences, 08-547), ATP (Sigma, A7699), and ULight-poly GT (PE, TRF0100-M) working solutions were prepared using the Assay Buffer. EDTA and Eu-labeled anti-phosphotyrosine (PT66) antibody (PE, AD0069) working solutions were prepared using the Detection Buffer. 6 μL of BTK(C481S) kinase at the corresponding concentration (final concentration: 0.005 ng/μL) was added to the compound groups and the control group, while 6 μL of the Assay Buffer was added to the blank group, and then the compounds (with the concentration set to 1000 nM at the maximum, 4-fold dilution, 7 concentration gradients) were added using a nanoliter pipettor. The mixture was incubated at room temperature for 30 min, and then 4 μL of the mixture of ATP (final concentration: 10 μM) and ULight-poly GT (final concentration: 100 nM) was added. After incubation at room temperature for 2 h, 5 μL of EDTA (final concentration: 10 mM) was added to stop the reaction, and finally 5 μL of antibody (final concentration: 2 nM) was added. After incubation at room temperature for 1 h, signal values were detected at 665/615 nM, the four-parameter analysis was performed, the dose-response curves were fit, and IC50 was calculated.

[3] = In vitro liver microsomal stability, human; assay type: in vitro ADME; conditions: 0.5 mg/mL microsomes, NADPH, 37° C., 1 h
Procedure: (§1) Liver microsome incubation samples were prepared by mixing a PBS buffer (pH 7.4), a liver microsome solution (0.5 mg/mL), a test compound, and an NADPH+MgCl2 solution and incubated at 37° C. and 300 rpm for 1 h. Zero-hour samples were prepared by mixing a PBS buffer (pH 7.4), a liver microsome solution (0.5 mg/mL), and a test compound. An acetonitrile solution containing an internal standard was added to the samples, and supernatants were prepared by protein precipitation, diluted, and then assayed by LC/MS/MS.

[4] = system: TMD8-BTK(C481S) cells; experiment: Inhibitory activity on TMD8-BTK(C481S) cell proliferation (CCK-8); assay type: cell-based; conditions: 72 h, 72 h incubation
How it was run: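 Cells seeded at 8×10^4 cells/mL, incubated overnight, then treated in duplicate with compounds at 5000 nM-0.31 nM for 72 h. Viability by CCK-8 (4 h, absorbance 450 nm); IC50 from four-parameter dose-response fits.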

[5] = system: TMD-8 xenograft tumors; experiment: In vivo drug efficacy, TMD-8 mouse subcutaneous xenograft tumors; set-up: species or system NOD-SCID mice; conditions: 30 mg/kg, qd, i.g.
Procedure: TMD-8 mouse subcutaneous xenograft tumors: TMD-8 (WT) cells at a concentration of 1×10^8/mL were inoculated under aseptic conditions into the right side armpit of NOD-SCID mice at 0.1 mL/mouse. After subcutaneous grafting, the animals were divided into groups with 6 animals in each group when the tumor volume reached about 188 mm^3 (or 200 mm^3):
model group: vehicle, 6 mice; compound administration groups: 30 mg/kg, qd, i.g., 6 mice.
The vehicle or the test compound was intragastrically given at a volume of 4 mL/kg, once daily for 16 consecutive days. The tumor volume was measured 2-3 times a week, and meanwhile, the mice were weighed and the data were recorded; the general behaviors of the animals were observed every day. After all dosing was complete, the animals were sacrificed on day 17, and the tumors were removed and weighed.
The tumor volume and the tumor growth inhibition were calculated using the following formulae:
Tumor volume (TV)=(Length×Width^2)/2.
Tumor growth inhibition (TGI)=(1−tumor weight of treatment group/tumor weight of model group)×100%.

[6] = In vitro liver microsomal stability, mouse; conditions: 0.5 mg/mL microsomes, NADPH, 37° C., 1 h
Procedure: as §1

SMILES | pIC50 ([1]; 72 h) | pIC50 [2] | Human liver microsome Residuals at 60 min [3] [%] | pIC50 [4] | TGI d 17 ([5]; 16 days, tumor weight on day 17) [%] | TV on d 0 Mean ± SD ([5]; day 0 (baseline at grouping)) [mm^3] | TV on d 12 Mean ± SD ([5]; day 12) [mm^3] | TV on d 15 Mean ± SD ([5]; day 15) [mm^3] | Mouse liver microsome Residuals at 60 min [6] [%] | pIC50 [1]
CN1CCN([C@@H]2CCCN(c3cnc(C(N)=O)c(Nc4ccc(N5CCC(CN6CCc7ccc8c(C9CCC(=O)NC9=O)noc8c7CC6)CC5)cc4)n3)C2)C1=O (some centres unmarked) [Compound 27] | 10.21 | 8.05 | 56.0 | – | – | – | – | – | – | –
CN1CCN([C@@H]2CCCN(c3cnc(C(N)=O)c(Nc4ccc(C5CCN(C6CN(c7ccc8c(C9CCC(=O)NC9=O)noc8c7)C6)CC5)cc4)n3)C2)C1=O (some centres unmarked) [Compound 10] | – | 7.71 | – | 8.62 | 97.5 | 226 ± 29 | 235 ± 57 | 209 ± 60 | 65.4 | –
CN1CCN([C@@H]2CCCN(c3cnc(C(N)=O)c(Nc4ccc(C5CCC(N6Cc7ccc8c(C9CCC(=O)NC9=O)noc8c7C6)CC5)cc4)n3)C2)C1=O (some centres unmarked) [Compound 33] | – | 7.66 | 55.0 | – | – | – | – | – | 71.0 | 9.43
